From paper PMC3441713, “Citrullination of Histone H3 Interferes with HP1-Mediated Transcriptional Repression” (PLoS Genetics, 2012) come the findings set out here.

Entries after “also recorded” stand apart in the source; their conditions may differ.

In assay [1] the test system is Jurkat T cells. Put plainly: PADI4 production in Jurkat T cells after estrogen/ionophore treatment (data not shown). Format: cell-based.
Assay [2] has as its system MCF7 cells. The assay can be described thus: RT-qPCR of HERV, repeat and immune gene mRNA in MCF7 cells. It counts as cell-based, human. The procedure:
(§1) HP1 small interfering RNAs (siRNAs) were described previously. PADI4 (J-012471-05) and Glyceraldehyde-3-phosphate dehydrogenase control siRNAs were purchased from Dharmacon. Cells were harvested 72 h after transfection with DharmaFECT 1 (T 2001-03). Total RNA from PBMCs and MCF7 cells was extracted with RNeasy (Qiagen) and quantified with an ND-1000 (Nanodrop). After DNase treatment (Roche), reverse transcription was performed using SuperScript III (Invitrogen) and random hexanucleotides according to the manufacturer's instructions. Complementary DNA was quantified by RT-qPCR as previously described. Proteins were extracted as described previously and detected by Western blotting. Acid extraction of histones was conducted as described by Shechter, et al., [78].

Assay [3] relates to MCF7 cells. Put plainly: Immunoblot of PADI4 and H3cit8K9me3 in MCF7 cells. It counts as cell-based, human.
From the text: Anti-H3cit8K9me3 antibody was produced in rabbits using a peptide coupled to KLH with the following sequence: ARTKQTA (cit)(Kme3)[…]. Anti-PADI4 (ChIP: P4749; immunoblots: ab50332), anti-H3cit(2,8,17) (ab5103), anti-H3(ab1791), and anti-H3K9me3 (ab8898) antibodies were purchased from Abcam. Anti-HP1α (ChIP: 1H5; immunoblots: 2G9) and anti-Brg1 (2E12) were from Euromedex. Calcium ionophore A23187 (used on HEK293 and MCF7 cells) and ionomycin (only ionophore tolerated by Jurkat cells), and 17-ß-estradiol (E2758) were purchased from Sigma. DNA was labeled with 4′,6-diamidino-2-phenylindole (DAPI; Invitrogen) at a concentration of 150 ng.ml^−1. […] Peptides were carefully quantified by amino acid analysis, and the presence of the modifications was confirmed by mass spectrometry. […]
as §1

In assay [4] the test system is MCF7 cells. Put plainly: ChIP on HERV LTRs and gene promoters in MCF7 cells. Format: cell-based, human. The procedure:
Values are averaged from 3 independent experiments.
Ionophores were used at 1 µM.

For assay [5], the system named is Jurkat T cells. The assay can be described thus: RT-qPCR of TNFα, IL8 and PADI4 mRNA in Jurkat T cells. Format: cell-based. To be noted: 200 µM Cl-amidine, 72 h; cells stimulated by ionomycin and PMA; duplicate.
Procedure: (B) Total RNA was isolated from Jurkat cells either un-stimulated or treated with ionomycin and PMA for 2 hour. Changes in mRNA levels for the indicated genes were quantified by RT-qPCR. The data are presented as the means ± SEM of triplicate experiments. […] (D) Total RNA was isolated from Jurkat cells treated as in B minus or plus PADI-inhibitor cl-amidine as indicated. Changes in mRNA levels for the indicated genes were quantified by RT-qPCR. The data are presented as the means ± SEM of duplicate experiments.
Jurkat cells were treated with phorbol myristate acetate (PMA) at 40 nM. Ionophores were used at 1 µM. PADI4 inhibitor, Cl-amidine (from Bertin Pharma) was dissolved in 1× PBS as a 50 mM stock solution. MCF7 and Jurkat cells were treated with 200 µM Cl-amidine in complete cell culture medium for exactly 72 h.
The mark [6] stands for this setting: E2 (200 nM, 24 h) + A23187 (5 µM, 30 min), minus or plus 200 µM Cl-amidine, relative to un-induced.

Turning to 17-ß-estradiol [E2/A23187], in the assay on Jurkat T cells [1], the “production of PADI4” value is recorded as “stimulated production”. Moreover, the “expression of HERV-H/env62, ERVWE1 and the selected cytokine genes” value in the assay with MCF7 cells [2] (setting [6]) is recorded as “Cl-amidine-sensitive increase in expression”. The “expression of HERV-H/env62” value in the assay on MCF7 cells [2] (E2 and A23187, 24 h, normalized to RPLP0, three replicates) was “increases the expression”. The “total levels of H3cit8K9me3 modification” value in the assay on MCF7 cells [3] (200 nM E2 24 h, then 5 µM A23187 30 min) is listed as “increases total levels”. In the assay with MCF7 cells [3] (200 nM E2 24 h, then 5 µM A23187 30 min in Locke's solution), the “total levels of PADI4” value is reported as “increases total levels; also recorded: induced”. In addition, the “levels of citrullinated histone H3 at HERV-H, HERV-W/LTR and TNFα promoter” value in the assay on MCF7 cells [4] (E2+A23187, anti-H3cit (2, 8, 17) or anti-H3cit8K9me3) is “locally increases levels of citrullinated histone H3”. Besides, the “levels of HP1α recruitment at HERV-H, HERV-W/LTR and TNFα promoter” value in the assay on MCF7 cells [4] (E2+A23187, anti-HP1α) is “markedly decreased”.
As to `NC(=O)[C@H](CCCN=C(N)CCl)NC(=O)c1ccccc1` [Cl-amidine], in the assay on Jurkat T cells [5], the “TNFα and IL8 mRNA accumulation” value was “reduced the kinetic and the abundance”. Further, the “expression of HERV-H/env62, ERVWE1 and the selected cytokine genes” value is “reduced expression” in the assay on MCF7 cells [2] (200 µM Cl-amidine, 72 h, no E2/A23187, four replicates) and “Cl-amidine-sensitive increase in expression” in the assay with MCF7 cells [2] (setting [6]). In the assay on MCF7 cells [3] (200 µM Cl-amidine, 72 h), the “levels of H3Cit8K9me3” value is “decreased levels of H3Cit8K9me3”. Moreover, in the assay on MCF7 cells [4] (E2+A23187 plus 200 µM Cl-amidine, anti-HP1α), the “levels of HP1α occupancy at HERV-H, HERV-W/LTR and TNFα promoter” value is “partially restored”.
